In patent publication US20170290774A1, “NEUROKININ-1 RECEPTOR ANTAGONIST COMPOSITION FOR TREATMENT OF DISEASES AND CONDITIONS OF THE RESPIRATORY TRACT” (PLUS VITECH, S.L., priority 2014, published 2017):

How the values were obtained:
[1] = Tissue concentration of aprepitant by HPLC after oral or inhaled administration to rabbits; assay type: in vivo, New Zealand albino rabbits; conditions: for concentration at 7 days: New Zealand White, rabbit, lung, seven days
Procedure: Herein, New Zealand albino rabbits (New Zealand White Rabbits) with an initial average weight of approximately 3 kg were used. The rabbits were fed ad libitum and were monitored daily to check that signs of toxicity had not appeared. […] This mixture was administered as an aerosol to the airways of a group of 3 of said rabbits (Group 5) in a dose of 0.05 mg/kg body weight per day, to another group of three rabbits (Group 6) in a dose of 0.1 mg/kg body weight per day, to another group of three rabbits (group 7) in a dose of 0.2 mg/kg body weight per day and to another group of three rabbits (Group 8) in a dose of 0.4 mg/kg body weight per day. […] After seven days of treatment all animals were euthanized and necropsied. […] Samples were taken at the peripheral level of the lung parenchyma, just below the pleural surface. Tissue samples were also taken from the nasal cavity, pharynx, larynx and bronchi. […] The average is the arithmetic average calculated for each row or column of each table. The SD is the standard deviation, calculated for each row or column of each table.

CYP3A4 = target: T1, CYP3A4 (Homo sapiens, UniProt P08684); conditions: human hepatic microsomes; cited from earlier work
T1 construct: In vitro studies in which human hepatic microsomes were used; from tissue; host or cells: human hepatic (liver) microsomes
T1 sequence (P08684 whole entry): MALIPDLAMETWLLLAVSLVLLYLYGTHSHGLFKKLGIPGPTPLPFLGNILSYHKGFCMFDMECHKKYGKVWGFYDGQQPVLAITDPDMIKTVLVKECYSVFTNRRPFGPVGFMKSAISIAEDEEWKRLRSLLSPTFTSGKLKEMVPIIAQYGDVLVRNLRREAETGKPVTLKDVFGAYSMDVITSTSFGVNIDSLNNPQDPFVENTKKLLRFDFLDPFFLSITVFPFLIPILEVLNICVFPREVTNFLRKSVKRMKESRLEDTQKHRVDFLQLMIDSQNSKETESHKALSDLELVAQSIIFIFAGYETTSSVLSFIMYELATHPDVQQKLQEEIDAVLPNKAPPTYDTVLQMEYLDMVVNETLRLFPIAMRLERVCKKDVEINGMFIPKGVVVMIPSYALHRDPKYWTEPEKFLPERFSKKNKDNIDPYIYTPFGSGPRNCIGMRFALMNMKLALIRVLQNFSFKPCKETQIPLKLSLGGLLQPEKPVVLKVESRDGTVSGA

[2] = Saturation concentration of NK1 receptor antagonists in olive oil; assay type: physicochemical; conditions: 25° C.
Procedure: Each of said mixtures was continuously and gently stirred for 10 minutes at ambient temperature (25° C.) and then maintained at rest for 60 minutes. The saturation concentration was considered to be that which was immediately lower in the aforementioned series than a concentration where deposition was observed, but in which no deposition of the active ingredient was observed.

C[C@@H](OC1OCCN(Cc2nc(=O)[nH][nH]2)C1c1ccc(F)cc1)c1cc(C(F)(F)F)cc(C(F)(F)F)c1 (stereo in doubt) [Aprepitant, 5-([(2R,3S)-2-((R)-1-[3,5-bis(trifluoromethyl)phenyl]ethoxy)-3-(4-fluorophenyl)morpholino]methyl)-1H-1,2,4-triazol-3(2H)-one]
concentration at 7 days ([1]; left superior lobe, po, 10 mg/kg/day, Lung concentration of aprepitant LSPI, Average ± SD of cases, Group 1, oral 10 mg/kg per day): 600 ng/g
concentration at 7 days ([1]; left superior lobe, po, 40 mg/kg/day, Lung concentration of aprepitant LSPI (left superior lobe), Group 2, oral 40 mg/kg per day, individual cases): 5300 ng/g
concentration at 7 days ([1]; left superior lobe, po, 40 mg/kg/day, Lung concentration of aprepitant LSPI, Average ± SD of cases, Group 2, oral 40 mg/kg per day): 4300 ng/g
concentration at 7 days ([1]; left superior lobe, po, 80 mg/kg/day, Lung concentration of aprepitant LSPI (left superior lobe), Group 3, oral 80 mg/kg per day, individual cases): 3900 ng/g
concentration at 7 days ([1]; left superior lobe, po, 80 mg/kg/day, Lung concentration of aprepitant LSPI, Average ± SD of cases, Group 3, oral 80 mg/kg per day): 4700 ng/g
concentration at 7 days ([1]; right inferior lobe, inhaled, 0.4 mg/kg/day, Lung concentration of aprepitant LIPD (right inferior lobe), Group 8, inhalation (aerosol, olive oil) 0.4 mg/kg per day, individual cases): 9900 ng/g
concentration at 7 days ([1]; right inferior lobe, inhaled, 0.4 mg/kg/day, Lung concentration of aprepitant LIPD, Average ± SD of cases, Group 8, inhalation (aerosol, olive oil) 0.4 mg/kg per day): 10100 ng/g
concentration at 7 days ([1]; right inferior lobe, po, 10 mg/kg/day, Lung concentration of aprepitant LIPD (right inferior lobe), Group 1, oral 10 mg/kg per day, individual cases): 600 ng/g
concentration at 7 days ([1]; right inferior lobe, po, 10 mg/kg/day, Lung concentration of aprepitant LIPD, Average ± SD of cases, Group 1, oral 10 mg/kg per day): 800 ng/g
concentration at 7 days ([1]; right inferior lobe, po, 40 mg/kg/day, Lung concentration of aprepitant LIPD (right inferior lobe), Group 2, oral 40 mg/kg per day, individual cases): 3300 ng/g
concentration at 7 days ([1]; right inferior lobe, po, 40 mg/kg/day, Lung concentration of aprepitant LIPD, Average ± SD of cases, Group 2, oral 40 mg/kg per day): 3500 ng/g
concentration at 7 days ([1]; right inferior lobe, po, 80 mg/kg/day, Lung concentration of aprepitant LIPD (right inferior lobe), Group 3, oral 80 mg/kg per day, individual cases): 5100 ng/g
concentration at 7 days ([1]; right inferior lobe, po, 80 mg/kg/day, Lung concentration of aprepitant LIPD, Average ± SD of cases, Group 3, oral 80 mg/kg per day): 5500 ng/g
concentration at 7 days ([1]; right middle lobe, inhaled, 0.4 mg/kg/day, Lung concentration of aprepitant LMPD (right middle lobe), Group 8, inhalation (aerosol, olive oil) 0.4 mg/kg per day, individual cases): 10000 ng/g
concentration at 7 days ([1]; right middle lobe, inhaled, 0.4 mg/kg/day, Lung concentration of aprepitant LMPD, Average ± SD of cases, Group 8, inhalation (aerosol, olive oil) 0.4 mg/kg per day): 10000 ng/g
concentration at 7 days ([1]; right middle lobe, po, 10 mg/kg/day, Lung concentration of aprepitant LMPD (right middle lobe), Group 1, oral 10 mg/kg per day, individual cases): 1100 ng/g
concentration at 7 days ([1]; right middle lobe, po, 10 mg/kg/day, Lung concentration of aprepitant LMPD, Average ± SD of cases, Group 1, oral 10 mg/kg per day): 1300 ng/g
concentration at 7 days ([1]; right middle lobe, po, 40 mg/kg/day, Lung concentration of aprepitant LMPD (right middle lobe), Group 2, oral 40 mg/kg per day, individual cases): 4200 ng/g
concentration at 7 days ([1]; right middle lobe, po, 40 mg/kg/day, Lung concentration of aprepitant LMPD, Average ± SD of cases, Group 2, oral 40 mg/kg per day): 4000 ng/g
concentration at 7 days ([1]; right middle lobe, po, 80 mg/kg/day, Lung concentration of aprepitant LMPD (right middle lobe), Group 3, oral 80 mg/kg per day, individual cases): 4800 ng/g
concentration at 7 days ([1]; right middle lobe, po, 80 mg/kg/day, Lung concentration of aprepitant LMPD, Average ± SD of cases, Group 3, oral 80 mg/kg per day): 5200 ng/g
concentration at 7 days ([1]; right middle lobe, po, 100 mg/kg/day, Lung concentration of aprepitant LMPD (right middle lobe), Group 4, oral 100 mg/kg per day, individual cases): 5800 ng/g
concentration at 7 days ([1]; right superior lobe, inhaled, 0.4 mg/kg/day, Lung concentration of aprepitant LSPD (right superior lobe), Group 8, inhalation (aerosol, olive oil) 0.4 mg/kg per day, individual cases): 10100 ng/g
concentration at 7 days ([1]; right superior lobe, inhaled, 0.4 mg/kg/day, Lung concentration of aprepitant LSPD, Average ± SD of cases, Group 8, inhalation (aerosol, olive oil) 0.4 mg/kg per day): 9900 ng/g
concentration at 7 days ([1]; right superior lobe, po, 10 mg/kg/day, Lung concentration of aprepitant LSPD, Average ± SD of cases, Group 1, oral 10 mg/kg per day): 900 ng/g
concentration at 7 days ([1]; right superior lobe, po, 40 mg/kg/day, Lung concentration of aprepitant LSPD (right superior lobe), Group 2, oral 40 mg/kg per day, individual cases): 3200 ng/g
concentration at 7 days ([1]; right superior lobe, po, 40 mg/kg/day, Lung concentration of aprepitant LSPD, Average ± SD of cases, Group 2, oral 40 mg/kg per day): 3500 ng/g
concentration at 7 days ([1]; right superior lobe, po, 80 mg/kg/day, Lung concentration of aprepitant LSPD (right superior lobe), Group 3, oral 80 mg/kg per day, individual cases): 4900 ng/g
concentration at 7 days ([1]; right superior lobe, po, 80 mg/kg/day, Lung concentration of aprepitant LSPD, Average ± SD of cases, Group 3, oral 80 mg/kg per day): 4100 ng/g
concentration at 7 days ([1]; right superior lobe, po, 100 mg/kg/day, Lung concentration of aprepitant LSPD (right superior lobe), Group 4, oral 100 mg/kg per day, individual cases): 5100 ng/g
relationship between dose and concentration in the lungs ([1]; inhalation, 0.05 to 0.4 mg/kg per day): proportional to the dose administered by inhalation
metabolising enzyme (CYP3A4): principally metabolized by CYP3A4
Saturation concentration [2]: 60 nM
